Reference: paper PMC9378504 (Journal of medicinal chemistry, 2022)

Experiments:
NSD2 [1] = biological target: T1, NSD2 (Homo sapiens, UniProt O96028); assay: Western blotting of NSD2 protein level in 293FT cells; type: cell-based
T1 sequence (O96028 1-1365): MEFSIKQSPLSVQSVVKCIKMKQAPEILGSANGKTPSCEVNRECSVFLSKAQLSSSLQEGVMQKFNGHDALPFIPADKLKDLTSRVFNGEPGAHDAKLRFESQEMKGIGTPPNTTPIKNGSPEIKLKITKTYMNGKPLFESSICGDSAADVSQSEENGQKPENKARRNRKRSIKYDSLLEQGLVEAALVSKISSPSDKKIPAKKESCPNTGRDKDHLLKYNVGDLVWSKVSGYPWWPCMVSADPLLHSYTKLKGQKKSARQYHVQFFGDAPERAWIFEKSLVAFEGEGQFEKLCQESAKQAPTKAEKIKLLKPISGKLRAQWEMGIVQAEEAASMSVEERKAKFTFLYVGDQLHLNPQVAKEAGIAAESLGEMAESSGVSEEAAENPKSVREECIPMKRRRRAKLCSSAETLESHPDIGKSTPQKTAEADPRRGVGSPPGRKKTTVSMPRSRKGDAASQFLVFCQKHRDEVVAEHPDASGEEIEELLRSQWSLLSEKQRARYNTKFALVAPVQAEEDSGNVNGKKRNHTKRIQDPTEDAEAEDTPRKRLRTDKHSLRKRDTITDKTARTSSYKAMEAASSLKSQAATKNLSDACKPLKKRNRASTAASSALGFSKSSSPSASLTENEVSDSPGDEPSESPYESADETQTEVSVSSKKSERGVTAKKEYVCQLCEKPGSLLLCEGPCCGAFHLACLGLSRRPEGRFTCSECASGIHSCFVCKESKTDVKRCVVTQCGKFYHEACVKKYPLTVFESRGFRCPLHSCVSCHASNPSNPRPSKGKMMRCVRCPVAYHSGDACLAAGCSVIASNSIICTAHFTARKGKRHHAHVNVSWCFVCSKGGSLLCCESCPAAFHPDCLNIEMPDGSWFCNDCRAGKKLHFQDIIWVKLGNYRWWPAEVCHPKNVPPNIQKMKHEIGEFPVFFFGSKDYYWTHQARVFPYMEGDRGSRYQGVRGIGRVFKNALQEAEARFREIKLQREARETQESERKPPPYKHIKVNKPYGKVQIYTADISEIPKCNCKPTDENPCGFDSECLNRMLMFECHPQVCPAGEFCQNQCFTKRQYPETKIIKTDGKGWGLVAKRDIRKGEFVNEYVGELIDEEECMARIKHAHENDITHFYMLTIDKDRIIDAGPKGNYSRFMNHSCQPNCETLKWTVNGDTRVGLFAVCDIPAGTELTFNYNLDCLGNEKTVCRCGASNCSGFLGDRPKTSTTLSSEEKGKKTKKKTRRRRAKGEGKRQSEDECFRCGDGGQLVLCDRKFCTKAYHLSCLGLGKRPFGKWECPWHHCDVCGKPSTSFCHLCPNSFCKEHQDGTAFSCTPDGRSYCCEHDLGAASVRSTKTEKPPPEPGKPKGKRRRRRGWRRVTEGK

NSD2 [2] = biological target: T1, NSD2; assay: Western blotting of NSD2 protein level in CRBN KO 293FT cells; type: cell-based; conditions: 293FT cells with CRISPR-Cas9-mediated KO of CRBN, range of concentrations, 48 h
IKZF3 [3] = biological target: T2, IKZF3 (Homo sapiens, UniProt Q96SW2+Q9UKT9); assay: Western blotting of IKZF3 protein level in 293FT cells; type: cell-based; conditions: for IKZF3 protein level after pretreatment: 293FT cells, then 5 μM for 6 h
IKZF3 [4] = biological target: T2, IKZF3; assay: Western blotting of IKZF3 protein level in CRBN KO 293FT cells; type: cell-based; conditions: 293FT cells with CRISPR-Cas9-mediated KO of CRBN, range of concentrations, 48 h
NSD2 [5] = biological target: T1, NSD2; assay: Western blotting of NSD2 protein level in KMS11 cells; type: cell-based; conditions: 2.5 μM, 72 h
NSD2 [6] = biological target: T1, NSD2; assay: Western blotting of NSD2 protein level in H929 cells; type: cell-based; conditions: 2.5 μM, 72 h
GSPT1 [7] = assay: Western blotting of GSPT1 protein level in KMS11 cells; type: cell-based, Human; conditions: 2.5 μM, 72 h
GSPT1 [8] = assay: Western blotting of GSPT1 protein level in H929 cells; type: cell-based, Human; conditions: 2.5 μM, 72 h
IKZF1 [9] = biological target: T3, IKZF1 (Homo sapiens, UniProt Q13422+Q96SW2); assay: Western blotting of IKZF1 protein level in KMS11 cells; type: cell-based; conditions: for IKZF1 degradation after pretreatment: then 5 μM for 6 h
IKZF1 [10] = biological target: T3, IKZF1; assay: Western blotting of IKZF1 protein level in H929 cells; type: cell-based; conditions: 2.5 μM, 72 h
IKZF3 [11] = biological target: T2, IKZF3; assay: Western blotting of IKZF3 protein level in KMS11 cells; type: cell-based; conditions: then 5 μM for 6 h
[12] = test system: 20 protein lysine and arginine methyltransferases including NSD1/2/3; assay: Selectivity assay, radioisotope-based filter binding; type: biochemical, human; conditions: 10 μM, in duplicate, SAM 1 μM
KMS11 cells = assay: Cell growth inhibition assay in KMS11 cells; type: cell-based, Human; conditions: 2.5 μM, 8 days
H929 cells = assay: Cell growth inhibition assay in H929 cells; type: cell-based, Human; conditions: 2.5 μM, 8 days
Mouse PK study = type: in vivo; conditions: single IP 50 mg/kg, male Swiss albino mice
[13] = WT 293FT cells, range of concentrations, 48 h
[14] = pretreated with 10 nM MLN9708 for 2 h
[15] = pretreated with 0.5 μM MLN4924 for 2 h

T2 sequence (Q9UKT9 whole entry): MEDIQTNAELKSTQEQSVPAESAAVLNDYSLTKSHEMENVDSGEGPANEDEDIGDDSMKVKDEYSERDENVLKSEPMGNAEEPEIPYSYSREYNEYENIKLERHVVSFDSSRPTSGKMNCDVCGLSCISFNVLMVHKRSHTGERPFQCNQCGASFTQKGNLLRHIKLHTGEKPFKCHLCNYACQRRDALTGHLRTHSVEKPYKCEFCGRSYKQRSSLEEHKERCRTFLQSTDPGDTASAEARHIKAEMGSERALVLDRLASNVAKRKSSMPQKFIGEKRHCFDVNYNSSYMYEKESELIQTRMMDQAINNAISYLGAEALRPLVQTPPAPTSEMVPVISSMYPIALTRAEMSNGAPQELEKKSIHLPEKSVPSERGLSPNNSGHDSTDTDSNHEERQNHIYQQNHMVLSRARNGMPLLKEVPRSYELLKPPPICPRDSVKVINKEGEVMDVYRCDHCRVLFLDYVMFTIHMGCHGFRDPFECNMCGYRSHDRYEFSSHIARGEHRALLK
T2 sequence (Q96SW2 whole entry): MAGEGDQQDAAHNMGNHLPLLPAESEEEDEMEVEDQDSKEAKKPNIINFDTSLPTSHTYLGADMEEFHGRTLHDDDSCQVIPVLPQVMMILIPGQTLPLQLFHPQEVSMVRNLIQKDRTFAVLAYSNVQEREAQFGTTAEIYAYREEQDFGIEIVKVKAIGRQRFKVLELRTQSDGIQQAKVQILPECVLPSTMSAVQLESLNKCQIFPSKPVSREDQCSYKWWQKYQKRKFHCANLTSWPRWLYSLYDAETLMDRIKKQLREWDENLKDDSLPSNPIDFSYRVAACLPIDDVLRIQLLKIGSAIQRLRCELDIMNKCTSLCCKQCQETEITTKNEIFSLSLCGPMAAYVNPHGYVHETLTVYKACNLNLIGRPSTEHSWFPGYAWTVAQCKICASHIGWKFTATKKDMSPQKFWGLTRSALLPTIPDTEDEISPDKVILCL
T2 sequence (Q16531 whole entry partner): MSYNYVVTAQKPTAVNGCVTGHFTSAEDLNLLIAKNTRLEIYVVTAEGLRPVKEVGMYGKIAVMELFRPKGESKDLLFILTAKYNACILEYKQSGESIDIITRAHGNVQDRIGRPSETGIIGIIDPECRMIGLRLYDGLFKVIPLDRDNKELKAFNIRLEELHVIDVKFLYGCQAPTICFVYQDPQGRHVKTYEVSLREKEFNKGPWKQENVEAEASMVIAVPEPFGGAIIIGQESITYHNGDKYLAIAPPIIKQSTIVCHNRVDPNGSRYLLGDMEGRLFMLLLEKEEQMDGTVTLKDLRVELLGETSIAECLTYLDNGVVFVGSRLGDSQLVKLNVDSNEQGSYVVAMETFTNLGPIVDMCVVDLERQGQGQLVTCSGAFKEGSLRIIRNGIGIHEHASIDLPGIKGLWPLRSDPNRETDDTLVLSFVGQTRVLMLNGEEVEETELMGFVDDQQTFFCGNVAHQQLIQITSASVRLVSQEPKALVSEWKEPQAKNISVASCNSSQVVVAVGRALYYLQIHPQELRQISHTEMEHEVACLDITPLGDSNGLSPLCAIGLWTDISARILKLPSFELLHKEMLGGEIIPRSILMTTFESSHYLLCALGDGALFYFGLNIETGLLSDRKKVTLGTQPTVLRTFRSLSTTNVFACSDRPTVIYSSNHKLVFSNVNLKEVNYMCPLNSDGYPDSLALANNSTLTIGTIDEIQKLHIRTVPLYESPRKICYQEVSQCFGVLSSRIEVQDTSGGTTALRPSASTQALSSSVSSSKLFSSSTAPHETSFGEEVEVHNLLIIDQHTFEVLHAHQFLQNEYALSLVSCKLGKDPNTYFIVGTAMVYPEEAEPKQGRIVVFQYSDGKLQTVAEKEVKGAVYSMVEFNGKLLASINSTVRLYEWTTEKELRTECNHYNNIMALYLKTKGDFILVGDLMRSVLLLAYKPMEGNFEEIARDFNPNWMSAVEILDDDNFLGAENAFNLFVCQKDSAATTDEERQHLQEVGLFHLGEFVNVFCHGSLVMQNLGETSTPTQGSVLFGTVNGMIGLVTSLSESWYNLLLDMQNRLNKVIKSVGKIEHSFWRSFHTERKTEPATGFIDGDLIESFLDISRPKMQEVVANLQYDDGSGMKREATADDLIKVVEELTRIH
T3 sequence (Q13422 whole entry): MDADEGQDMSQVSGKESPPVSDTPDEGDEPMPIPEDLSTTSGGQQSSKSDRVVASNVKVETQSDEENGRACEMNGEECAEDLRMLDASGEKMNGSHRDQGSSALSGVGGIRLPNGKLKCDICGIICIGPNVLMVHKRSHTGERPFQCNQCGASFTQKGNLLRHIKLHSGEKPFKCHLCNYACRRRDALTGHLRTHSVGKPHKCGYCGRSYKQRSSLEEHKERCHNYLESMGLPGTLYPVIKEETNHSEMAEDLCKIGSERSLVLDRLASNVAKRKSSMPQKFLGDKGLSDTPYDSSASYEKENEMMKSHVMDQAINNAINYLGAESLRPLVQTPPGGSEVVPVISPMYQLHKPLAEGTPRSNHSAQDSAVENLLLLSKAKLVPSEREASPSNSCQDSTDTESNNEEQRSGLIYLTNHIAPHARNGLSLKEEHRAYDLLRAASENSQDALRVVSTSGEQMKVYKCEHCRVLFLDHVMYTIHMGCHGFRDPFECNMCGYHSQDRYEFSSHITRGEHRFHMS
T3 sequence (Q96SW2 whole entry): as the sequence (Q96SW2 whole entry) above
T3 sequence (Q16531 whole entry partner): as the sequence (Q16531 whole entry partner) above

O=C(CNc1cccc2c1C(=O)N(C1CCC(=O)NC1=O)C2=O)NCCCOc1ccc(NC(=O)c2ccc(CN(C(=O)c3ccc4c(c3)OCC(=O)N4)C3CC3)cc2)nc1 (stereo not shown) [Compound 9, N-Cyclopropyl-N-(4-((5-(3-(2-((2-(2,6-dioxopiperidin-3-yl)-1,3-dioxoisoindolin-4-yl)amino)acetamido)propoxy)pyridin-2-yl)-carbamoyl)benzyl)-3-oxo-3,4-dihydro-2H-benzo[b][1,4]oxazine-7-carboxamide]
NSD2 protein level on cotreatment (NSD2 [1]; 293FT cells, 5 μM for 48 h, cotreated with 5 μM UNC6934 during the last 6 h): significantly rescued | NSD2 degradation, time course (NSD2 [1]; 293FT cells, 5 μM, 36 h): some NSD2 degradation | NSD2 degradation, time course (NSD2 [1]; 293FT cells, 5 μM, 48 h): significant degradation | NSD2 degradation, time course (NSD2 [1]; 293FT cells, 5 μM, 72 h): maximum degradation effect | NSD2 protein level after washout (NSD2 [1]; 293FT cells, 5 μM, then washout, 48 h post washout): fully recovered | NSD2 protein level (NSD2 [1]; 293FT cells, 2.5 and 10 μM, 48 h, Figure 2): effectively induced degradation of NSD2 at both 2.5 and 10 μM without a hook effect | NSD2 degradation (NSD2 [1]; [13]): clear degradation of NSD2 and IKZF3 was observed | NSD2 degradation (NSD2 [2]): no NSD2 or IKZF3 degradation was detected | IKZF3 protein level after pretreatment (IKZF3 [3]; [14]): successfully restored the IKZF3 protein level | IKZF3 protein level after pretreatment (IKZF3 [3]; [15]): successfully restored the IKZF3 protein level | IKZF3 degradation (IKZF3 [3]; [13]): clear degradation of NSD2 and IKZF3 was observed | IKZF3 degradation (IKZF3 [4]): no NSD2 or IKZF3 degradation was detected | NSD2 degradation (NSD2 [5]): effectively degraded NSD2 | NSD2 degradation (NSD2 [6]): effectively degraded NSD2 | GSPT1 degradation (GSPT1 [7]): did not degrade GSPT1 | GSPT1 degradation (GSPT1 [8]): did not degrade GSPT1 | IKZF1 protein level (IKZF1 [9]; 2.5 μM, 72 h): clearly reduced the IKZF1 protein level | IKZF1 degradation after pretreatment (IKZF1 [9]; [14]): at least partially rescued the IKZF1 and IKZF3 degradation | IKZF1 degradation after pretreatment (IKZF1 [9]; [15]): at least partially rescued the IKZF1 and IKZF3 degradation | IKZF1 protein level (IKZF1 [10]): clearly reduced the IKZF1 protein level | IKZF3 degradation after pretreatment (IKZF3 [11]; [14]): at least partially rescued the IKZF1 and IKZF3 degradation | IKZF3 degradation after pretreatment (IKZF3 [11]; [15]): at least partially rescued the IKZF1 and IKZF3 degradation | Inhibition of 20 methyltransferases (selectivity) [12]: did not inhibit any of the 20 methyltransferases | Cell growth inhibition (KMS11 cells): effectively inhibited the growth | Cell growth inhibition (H929 cells): effectively inhibited the growth | clinical signs (Mouse PK study; PK study): no clinical signs were observed | tolerability (Mouse PK study; PK study): well tolerated | maximum plasma concentration (Mouse PK study; mean ± SD from three mice): 1.35 ± 0.08 µM
